For one assay, the system named is cultured epidermal cells. The note with it: 5 mmol/L; independently from cell proliferation; cited from earlier work.
For assay [1], the system named is Normal human epidermal cells. Nature of the assay: Test Example 2: hyaluronic acid production promotion in normal human epidermal cells. In kind it is cell-based. The settings on record: 48-hour culture, FIG. 3. An excerpt: Normal human epidermal cells (manufactured by Kurabo Industries Ltd.) were inoculated into 24-well plates and cultured in a culture medium for proliferation to the confluent density, and then 2-acetamido-1,3,4,6-tetra-O-acetyl-2-deoxy-β-D-glucopyranoside represented by formula (17) to a final concentration of 100 μmol/L, N-acetylglucosamine derivative obtained in Production Example 9 at a final concentration of 1 mmol/L, and N-acetylglucosamine derivatives obtained in Production Examples 10 to 12 at a final concentration of 100 mmol/L were added. After 48-hour culture from the addition, the amount of hyaluronic acid released into the culture medium was measured. The measurement of the hyaluronic acid was carried out by using a commercially available hyaluronic acid measurement kit (manufactured by Chugai Pharmaceutical Co., Ltd.).

[2] abbreviates: 100 mmol/L (so in the source), 1/10 concentration of N-acetylglucosamine.

`CC(=O)N[C@H]1C(O)O[C@H](CO)[C@@H](O)[C@@H]1O` (stereo partly drawn) [N-acetylglucosamine]: in the assay on cultured epidermal cells, the “promotion of hyaluronic acid production” value was “about 1.5 times”.
`CCOC1OC(COC(C)=O)C(OC(C)=O)C(OC(C)=O)C1NC(C)=O` [Production Example 9, ethyl(2-acetamido-3,4,6-tri-O-acetyl-2-deoxy)β-D-glucopyranoside]: in assay [1] (1 mmol/L (same concentration as N-acetylglucosamine)), the “hyaluronic acid production-promoting effect compared with N-acetylglucosamine” value worked out at 6.5 times.
Turning to `CCCCCOC1OC(COC(C)=O)C(OC(C)=O)C(OC(C)=O)C1NC(C)=O` [Production Example 10, pentyl(2-acetamido-3,4,6-tri-O-acetyl-2-deoxy)β-D-glucopyranoside], in assay [1] (setting [2]), the “hyaluronic acid production-promoting effect compared with N-acetylglucosamine” value is reported as 3.8 times.
Turning to `CCCCCCCCOC1OC(COC(C)=O)C(OC(C)=O)C(OC(C)=O)C1NC(C)=O` [Production Example 11, octyl(2-acetamido-3,4,6-tri-O-acetyl-2-deoxy)β-D-glucopyranoside], the “hyaluronic acid production-promoting effect compared with N-acetylglucosamine” value in assay [1] (setting [2]) is reported as 2.8 times.
With `CC(=O)NC1C(OC/C=C(\C)CCC=C(C)C)OC(COC(C)=O)C(OC(C)=O)C1OC(C)=O` [Production Example 12, geranyl(2-acetamido-3,4,6-tri-O-acetyl-2-deoxy)β-D-glucopyranoside], the “hyaluronic acid production-promoting effect compared with N-acetylglucosamine” value in assay [1] (setting [2]) stood at 3.7 times.
`CC(=O)NC1C(OC(C)=O)OC(COC(C)=O)C(OC(C)=O)C1OC(C)=O` [formula (17), 2-acetamido-1,3,4,6-tetra-O-acetyl-2-deoxy-β-D-glucopyranoside]: in assay [1] (100 μmol/L (1/10 concentration of N-acetylglucosamine)), the “hyaluronic acid production-promoting effect compared with N-acetylglucosamine” value is 3.0 times.
